According to ChEMBL document CHEMBL1129586, “Estrogenic triarylethylene acetic acids: effect of structural variation on estrogen receptor affinity and estrogenic potency and efficacy in MCF-7 cells” (J Med Chem, 1996):
The source made the active and inactive calls. No cut-off for these calls is given here.

Columns and labels:
MCF7 [1] = assay: Inhibition of MCF-7 cell proliferation; assay type: functional; details: Homo sapiens
MCF7 [2] = assay: cells; details: Homo sapiens
MCF7 [3] = assay: cells; details: Homo sapiens; remark: listed apart in the source
Description: Stimulation of MCF-7 cell proliferation

Estrogen receptor = Estrogen receptor (Rattus norvegicus, UniProt P06211+Q62986)
MCF7 [4] = assay: Inhibition of MCF-7 cell proliferation; h=No inhibitory effect; assay type: functional, cell-based; details: Homo sapiens

IC50 (MCF7 [2])	EC50 (MCF7 [3])	IC50 (Estrogen receptor)	SMILES	IC30 (MCF7 [1])	IC30 (MCF7 [4])
21 nM	5.3 nM	9 nM	CC/C(=C(\c1ccc(O)cc1)c1ccc(OCC(=O)O)cc1)c1ccccc1	30 nM	
97 nM	350 nM	1060 nM	CC/C(=C(\c1ccc(C)cc1)c1ccc(OCC(=O)O)cc1)c1ccccc1	13 nM	
58 nM	42 nM	450 nM	CC/C(=C(\c1ccc(O)cc1)c1ccc(CC(=O)O)cc1)c1ccccc1	2.5 nM	
2390 nM	46 nM	750 nM	CCC(=C(c1ccc(O)cc1)c1ccc(O)cc1)c1ccc(OCC(=O)O)cc1		inactive
320 nM	300 nM	4500 nM	CC/C(=C(\c1ccccc1)c1ccc(OCC(=O)O)cc1)c1ccccc1	20 nM	

SMILES	IC50 (MCF7 [2])	EC50 (MCF7 [3])	IC50 (Estrogen receptor)	IC30 (MCF7 [1])	IC30 (MCF7 [4])
O=C(O)COc1ccc(C(Cc2ccccc2)c2ccc(O)cc2)cc1 (centres undefined)	600 nM	16 nM	900 nM		inactive
